Marks after values point to notes of the source that are not given here.

The nature of data set [1]: Plate-based fluorescence (RiboGreen) assay: nucleic acid cargo content and encapsulation efficiency of LNPs. In kind it is physicochemical. The note with it: for EE (%) N/P:6: LNP. Here is the method:
(§1) Lipids and active ingredients (e.g., RNA, DNA, etc.) were assembled into LNPs using microfluidic mixing. An ethanol phase was prepared by solubilizing ionizable lipids (i.e., lipid compounds), phospholipids (e.g., DSPC), cholesterol, and PEG lipids in ethanol, at predetermined mol % ratios given in Table 2. An aqueous phase was prepared by diluting a nucleic acid cargo (e.g., firefly luciferase mRNA) in an acidified buffer (pH 4.0 citrate buffer, 50 mM). A chip with microfluidic mixing architecture (e.g., toroidal mixer) was used to mix the two phases at predetermined flow rate ratios (e.g., 9 ml/min for the aqueous phase and 3 ml/min for the ethanol phase). Resulting LNPs comprising the lipids and encapsulating the nucleic acid cargo were dialyzed against PBS pH 7.4 for 2 hours at room temperature in a 20 kDa MWCO dialysis membrane. Then, PBS was refreshed to continue dialysis overnight at 2-8 TC. Upon completion of the buffer exchange, LNPs were optionally concentrated using a ultracentrifugal unit with a 10-100 kDa MWCO membrane.
c. Plate-Based Fluorescence (RiboGreen) Assay
Nucleic acid cargos in the LNPs were quantified by RiboGreen assay, against a nucleic acid standard curve. LNPs encapsulating nucleic acid cargo were mixed with 1× Tris-EDTA (TE) and 2% triton in TE, separately, to achieve dilutions required by the assay. Then, the samples were heated at 30° C. and vortexed at 300 rpm. Samples were plated into 96-well plates and RiboGreen reagent was added into each well. Following incubation in the dark, fluorescence was measured from the wells, and plotted against the standard curve. Nucleic acid concentration obtained from the Triton-treated samples were used for total cargo concentration quantification. Only TE diluted sample fluorescence values were used to determine the non-encapsulated (free) cargo, and their ratio was used to determine the encapsulation efficiency (EE %).

Data set [2] in a line: Dynamic light scattering: LNP particle size and PDI. The data set is classed as physicochemical. The note with it: for PDI N/P:6 / Size (nm) N/P:6: LNP. Here is the method: as §1
d. Dynamic Light Scattering
LNPs were diluted with PBS pH 7.4 to predetermined dilution ranges based on the process step and LNP concentration. Following mixing, the particle size and PDI were measured by a dynamic light scattering instrument.

In the next data set the test system is mouse organs. In words: In vivo activity screening in mice: organ mean total flux (p/s) of luciferase activity after injection of F2 LNP pools (Table 6, FIG. 7A-7C). As to conditions: luciferase mRNA. In outline: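 Luciferase output per organ is reported as mean total flux (p/s) from IVIS regions of interest. Organs were collected from perfused C57BL/6J mice and imaged 10-15 min after s.c. D-luciferin, 4-6 h after i.v. dosing. Dosing was 0.25-3 mg/kg luciferase mRNA in F2 LNP pools.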

Where [3] appears, read: LNP compositions for Formulation F2 Study.
[4] abbreviates: LNP compositions for in vivo mouse study, four formulations (F1-F4) pooled, or pools of four compounds.

As for `CCCCCCC(CCC(=O)OCC(COC(=O)CCCCCCOC(=O)C(CCCC)CCCCCC)(COC(=O)CCCCCCOC(=O)C(CCCC)CCCCCC)COC(=O)CCCCCCOC(=O)C(CCCC)CCCCCC)OC(=O)NCCN1CCCC1` (stereo not drawn) [Compound 18, [7-[2,2-bis[7-(2-butyloctanoyloxy)heptanoyloxymethyl]-3-[4-(2-pyrrolidin-1-ylethylcarbamoyloxy)decanoyloxy]propoxy]-7-oxo-heptyl]2-butyloctanoate], the EE % in data set [1] (setting [3]) is 98%; in data set [1] (setting [4]) it was 97%. Besides, the “mRNA Content” value in data set [1] (setting [4]) worked out at 100 µg/mL. Also, the “EE (%) N/P:6” value in data set [1] (Formulation F1, N/P 6) was found to be 99%; in data set [1] (Formulation F2, N/P 6), 99%; in data set [1] (Formulation F3, N/P 6), 99%; in data set [1] (Formulation F4, N/P 6), 99%. For the same compound, the results for the PDI in data set [2] (setting [3]) and in data set [2] (setting [4]) were 0.059 and 0.066, respectively. For the same compound, the “Particle Size (nm)” value in data set [2] (setting [3]) is listed as 92.2 nm; in data set [2] (LNP compositions for in vivo mouse study, four formulations (F1-F4) of the lipid compound pooled, or pools of four compounds (sixteen compositions)) it was 81.1 nm. The “PDI N/P:6” value is 0.04 in data set [2] (Formulation F1, N/P 6); 0.02 in data set [2] (Formulation F2, N/P 6); 0.03 in data set [2] (Formulation F3, N/P 6); 0.05 in data set [2] (Formulation F4, N/P 6). For the same compound, the “Size (nm) N/P:6” value in data set [2] (Formulation F1, N/P 6) worked out at 67 ± 1 nm; in data set [2] (Formulation F2, N/P 6), 78 ± 1 nm; in data set [2] (Formulation F3, N/P 6), 96 ± 2 nm; in data set [2] (Formulation F4, N/P 6), 65 ± 2 nm.
For `CCCCCCCCCOC(=O)CCCCCCC(=O)OCC(COC(=O)CCCCCCC(=O)OCCCCCCCCC)(COC(=O)CCCCCCC(=O)OCCCCCCCCC)COC(=O)CCC(CCCCCC)OC(=O)NCCN1CCCC1` (stereo not drawn) [Compound 23, O8-[2,2-bis[(8-nonoxy-8-oxo-octanoy)oxymethyl]-3-[4-(2-pyrrolidin-1-ylethylcarbamoyloxy)decanoyloxy]propyl]O1-nonyl octanedioate], in the data set with mouse organs (Mouse 11, dose 0.5 mg/kg), the “Organ Mean Total Flux Femur” value is 1.2 p/s (×10^6), the “Organ Mean Total Flux Heart” value was 2.1 p/s (×10^6), the “Organ Mean Total Flux Kidney” value was 1.2 p/s (×10^6) and the “Organ Mean Total Flux Liver” value is 1727 p/s (×10^6). Also, in the data set on mouse organs (Mouse 11, dose 0.5 mg/kg), the “Organ Mean Total Flux Lung” value is reported as 15.7 p/s (×10^6), the “Organ Mean Total Flux Muscle” value is on record as 3.0 p/s (×10^6), the “Organ Mean Total Flux Pancreas” value is reported as 0.6 p/s (×10^6) and the “Organ Mean Total Flux Spleen” value was 1.7 p/s (×10^6).
Consider `CCCCC/C=C\CCCOC(=O)CCCCC(=O)OCC(COC(=O)CCCCC(=O)OCCC/C=C\CCCCC)(COC(=O)CCCCC(=O)OCCC/C=C\CCCCC)COC(=O)CCC(CCCCCC)OC(=O)NCCN1CCCC1` (stereo not drawn) [Compound 47, O6-[2,2-bis[[6-[(Z)-dec-4-enoxy]-6-oxo-hexanoyl]oxymethyl]-3-[4-(2-pyrrolidin-1ylethylcarbamoyloxy)decanoyloxy]propyl]O1-[(Z)-dec-4-enyl]hexanedioate], for which, in the data set with mouse organs (Mouse 5, dose 0.5 mg/kg), the “Organ Mean Total Flux Femur” value was 15.1 p/s (×10^6), the “Organ Mean Total Flux Heart” value is recorded as 1.7 p/s (×10^6), the “Organ Mean Total Flux Kidney” value is 2.5 p/s (×10^6) and the “Organ Mean Total Flux Liver” value is 974.3 p/s (×10^6). In the data set with mouse organs (Mouse 5, dose 0.5 mg/kg), the “Organ Mean Total Flux Lung” value is listed as 25.7 p/s (×10^6), the “Organ Mean Total Flux Muscle” value is listed as 62.4 p/s (×10^6), the “Organ Mean Total Flux Pancreas” value was 4.4 p/s (×10^6) and the “Organ Mean Total Flux Spleen” value is 67.0 p/s (×10^6).
`CCCCC/C=C\CCOC(=O)CCCCC(=O)OCC(COC(=O)CCCCC(=O)OCC/C=C\CCCCC)(COC(=O)CCC(CCCCCC)OC(=O)NCCN1CCCC1)COC(=O)C1(C2CCCCC2)CCCCC1` (stereo not drawn) [Compound 96, O6-[2-[(1-cyclohexylcyclohexanecarbonyl)oxymethyl]-2-[[6-[(Z)-non-3-enoxy]-6-oxo-hexanoyl]oxymethyl]-3-[4-(2-pyrrolidin-1-ylethylcarbamoyl-oxy)decanoyloxy]propyl]O1-[(Z)-non-3-enyl]hexanedioate]: in the data set on mouse organs (Mouse 12, dose 0.5 mg/kg), the “Organ Mean Total Flux Femur” value is 3.4 p/s (×10^6), the “Organ Mean Total Flux Heart” value is 0.4 p/s (×10^6), the “Organ Mean Total Flux Kidney” value was 0.9 p/s (×10^6) and the “Organ Mean Total Flux Liver” value is reported as 213.0 p/s (×10^6). For the same compound, in the data set on mouse organs (Mouse 12, dose 0.5 mg/kg), the “Organ Mean Total Flux Lung” value is 9.0 p/s (×10^6), the “Organ Mean Total Flux Muscle” value was 11.9 p/s (×10^6), the “Organ Mean Total Flux Pancreas” value was 0.9 p/s (×10^6) and the “Organ Mean Total Flux Spleen” value is reported as 6.6 p/s (×10^6).
As to `CCCC/C=C\CCOC(=O)CCCCCCCC(=O)OCC(COC(=O)CCCCCCCC(=O)OCC/C=C\CCCC)(COC(=O)CCCCCCCC(=O)OCC/C=C\CCCC)COC(=O)CCC(CCCCCC)OC(=O)NCCN1CCCC1` (stereo not drawn) [Compound 21, O9-[2,2-bis[[9-[(Z)-oct-3-enoxy]-9-oxo-nonanoyl]oxymethyl]-3-[4-(2-pyrrolidin-1ylethylcarbamoyloxy)decanoyloxy]propyl]O1-[(Z)-oct-3-enyl]nonanedioate], in the data set with mouse organs (Mouse 11, dose 0.5 mg/kg), the “Organ Mean Total Flux Femur” value is on record as 2.0 p/s (×10^6), the “Organ Mean Total Flux Heart” value is recorded as 0.8 p/s (×10^6), the “Organ Mean Total Flux Kidney” value is on record as 0.7 p/s (×10^6) and the “Organ Mean Total Flux Liver” value was 818.7 p/s (×10^6). Also, in the data set on mouse organs (Mouse 11, dose 0.5 mg/kg), the “Organ Mean Total Flux Lung” value is recorded as 6.6 p/s (×10^6), the “Organ Mean Total Flux Muscle” value is listed as 4.1 p/s (×10^6), the “Organ Mean Total Flux Pancreas” value was 2.8 p/s (×10^6) and the “Organ Mean Total Flux Spleen” value was 2.0 p/s (×10^6).
For `CCCCC/C=C\CCOC(=O)CCCCC(=O)OCC(COC(=O)CCCCC(=O)OCC/C=C\CCCCC)(COC(=O)CCC(CCCCCC)OC(=O)NCCN1CCCC1)COC(=O)CC12CC(C1)C2` (stereo not drawn) [Compound 91, O6-[2-[[2-(1-bicyclo[1.1.1]pentanyl)acetyl]oxymethyl]-2-[[6-[(Z)-non-3-enoxy]-6-oxo-hexanoyl]oxymethyl]-3-[4-(2-pyrrolidin-1ylethylcarbamoyloxy)decanoyloxy]propyl]O1-[(Z)-non-3-enyl]hexanedioate], in the data set with mouse organs (Mouse 12, dose 0.5 mg/kg), the “Organ Mean Total Flux Femur” value was 15.8 p/s (×10^6), the “Organ Mean Total Flux Heart” value is reported as 2.6 p/s (×10^6), the “Organ Mean Total Flux Kidney” value is reported as 12.3 p/s (×10^6) and the “Organ Mean Total Flux Liver” value was 404.7 p/s (×10^6). Moreover, in the data set with mouse organs (Mouse 12, dose 0.5 mg/kg), the “Organ Mean Total Flux Lung” value was 26.3 p/s (×10^6), the “Organ Mean Total Flux Muscle” value is on record as 7.8 p/s (×10^6), the “Organ Mean Total Flux Pancreas” value is 76.4 p/s (×10^6) and the “Organ Mean Total Flux Spleen” value is reported as 123.6 p/s (×10^6).
On to `CCCCC/C=C\CCOC(=O)CCCCCCC(=O)OCC(COC(=O)CCCCCCC(=O)OCC/C=C\CCCCC)(COC(=O)CCCCCCC(=O)OCC/C=C\CCCCC)COC(=O)CCC(CCCCCC)OC(=O)NCCN(C)CC` (stereo not drawn) [Compound 29, O8-[2-[4-[2-[ethyl(methyl)amino]ethylcarbamoyloxy]decanoyloxymethyl]-3-[8-[(Z)-non-3-enoxy]-8-oxo-octanoyl]oxy-2-[[8-[(Z)-non-3-enoxy]-8-oxooctanoyl]oxymethyl]propyl]O1-[(Z)-non-3-enyl]octanedioate], for which, in the data set with mouse organs (Mouse 6, dose 0.5 mg/kg), the “Organ Mean Total Flux Femur” value is given as 4.2 p/s (×10^6), the “Organ Mean Total Flux Heart” value is on record as 3.9 p/s (×10^6), the “Organ Mean Total Flux Kidney” value is listed as 3.2 p/s (×10^6) and the “Organ Mean Total Flux Liver” value was 1913 p/s (×10^6). In the data set on mouse organs (Mouse 6, dose 0.5 mg/kg), the “Organ Mean Total Flux Lung” value was 11.4 p/s (×10^6), the “Organ Mean Total Flux Muscle” value is reported as 10.3 p/s (×10^6), the “Organ Mean Total Flux Pancreas” value was 1.4 p/s (×10^6) and the “Organ Mean Total Flux Spleen” value is 3.3 p/s (×10^6).
In the case of `CCCCC/C=C\CCOC(=O)CCCCC(=O)OCC(COC(=O)CCCCC(=O)OCC/C=C\CCCCC)(COC(=O)CCCCC(=O)OCC/C=C\CCCCC)COC(=O)CCC(CCCCCC)OC(=O)NCCN1CCCC1` (stereo not drawn) [Compound 13, O6-[2,2-bis[[6-[(Z)-non-3-enoxy]-6-oxo-hexanoyl]oxymethyl]-3-[4-(2-pyrrolidin-1-ylethylcarbamoyloxy)decanoyloxy]propyl]O1-[(Z)-non-3-enyl]hexanedioate], in the data set on mouse organs (Mouse 12, dose 0.5 mg/kg), the “Organ Mean Total Flux Femur” value is 4.8 p/s (×10^6), the “Organ Mean Total Flux Heart” value was 1.0 p/s (×10^6), the “Organ Mean Total Flux Kidney” value is 4.5 p/s (×10^6) and the “Organ Mean Total Flux Liver” value was 620.0 p/s (×10^6). In the data set with mouse organs (Mouse 12, dose 0.5 mg/kg), the “Organ Mean Total Flux Lung” value is 16.7 p/s (×10^6), the “Organ Mean Total Flux Muscle” value was 17.0 p/s (×10^6), the “Organ Mean Total Flux Pancreas” value is 1.1 p/s (×10^6) and the “Organ Mean Total Flux Spleen” value is 21.3 p/s (×10^6).

Source of the values: US20260234115A1, “LIPID COMPOUNDS, COMPOSITIONS, AND USES THEREOF” (Liberate Bio, Inc., priority 2023, published 2026).
